Test results published in patent US12570675B2, “Boronic acid compounds” (LG CHEM, LTD., priority 2020, dated 2026).
pIC50: −log10 of the molar value.

Molecular target: Proteasome chymotrypsin-like activity (S26 protein from RPMI8226 cells) (Homo sapiens, UniProt P28074)
Format: biochemical
Details: S26 protein from RPMI8226 cell extract 2 ug/well, substrate 20 uM, 37° C., 90 minutes; read-out: Proteasome chymotrypsin-like activity inhibition IC50
Description: The abilities to inhibit the proteasome activity of the compounds described in the Examples of the present invention and boronic acid drugs were evaluated as follows.
RPMI8226 cells, which is a multiple myeloma cell line, were cultured and then separated by a centrifuge, and washed twice with phosphate buffered saline (PBS). 20 mM of a tris-HCl (pH 8.0) buffer solution was added to the washed cells, and the cells were disrupted by a homogenizer and centrifuged to obtain S26 protein from the supernatant. Suc-Leu-Leu-Val-Tyr-AMC, for a fluorogenic substrate for the chymotrypsin-like activity of the proteasome, and Z-Leu-Leu-Glu-AMC, for a fluorogenic substrate for the caspase-like activity, were purchased from Calbiochem, EMD Millipore and used. Into each well of a 96-well plate (opaque, black round bottom), 20 ul of the S26 protein (final RPMI8226 cell extract concentration: 2 ug/well), 10 ul of S26 proteasome inhibitor serially diluted from 10 uM (final DMSO concentration: 0.5%), and 20 ul of the fluorogenic substrate for the proteasome chymotrypsin-like or caspase-like activity (final concentration: 20 uM) were added and mixed and allowed to react in a 37° C. incubator for 90 minutes. The fluorescence of the fluorogenic substrate was measured by FlexStation II Fluorometer (Molecular Devices). The fluorescence inhibited by the compound diluted at each concentration was measured as the relative percentage value for the amount obtained from the treatment only with the S26 protein and the fluorogenic substrate. IC50 (inhibitory concentration 50) was expressed in terms of a concentration that inhibits 50% of the maximum fluorescence induced by the fluorogenic substrate.

Proteasome chymotrypsin-like activity (S26 protein from RPMI8226 cells), sequence (P28074 60-263 limits assumed): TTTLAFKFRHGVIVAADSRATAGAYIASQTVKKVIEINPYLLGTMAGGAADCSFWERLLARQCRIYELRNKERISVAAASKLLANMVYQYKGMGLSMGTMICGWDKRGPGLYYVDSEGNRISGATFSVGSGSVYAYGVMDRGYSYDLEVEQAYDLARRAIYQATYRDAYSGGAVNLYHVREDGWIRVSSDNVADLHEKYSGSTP

Row | Structure (SMILES) | pIC50
1 | CC(C)C[C@H](NC(=O)C1(C(C)C)CC(CNC(=O)c2cc(Cl)ccc2Cl)=NO1)B(O)O (stereo partly drawn) [Example 89, ((1R)-1-(3-((2,5-dichlorobenzamido)methyl)-5-isopropyl-4,5-dihydroisoxazol-5-carboxamido)-3-methylbutyl)boronic acid] | > 7.00
2 | CC(C)C[C@H](NC(=O)C1(CC(C)C)CC(CNC(=O)c2cc(Cl)ccc2Cl)=NO1)B(O)O (stereo partly drawn) [Example 90, ((1R)-1-(3-((2,5-dichlorobenzamido)methyl)-5-isobutyl-4,5-dihydroisoxazol-5-carboxamido)-3-methylbutyl)boronic acid] | > 7.60
3 | CC(C)C[C@H](NC(=O)C1(CC(C)C)CC(CNC(=O)c2nccc3ccccc23)=NO1)B(O)O (stereo partly drawn) [Example 91, ((1R)-1-(5-isobutyl-3-((isoquinolin-1-carboxamido)methyl)-4,5-dihydroisoxazol-5-carboxamido)-3-methylbutyl)boronic acid] | > 7.60
4 | CC(C)C[C@H](NC(=O)C1(Cc2ccccc2)CC(CNC(=O)c2cc3ccccc3s2)=NO1)B(O)O (stereo partly drawn) [Example 93, ((1R)-1-(3-((benzo[b]thiophen-2-carboxamido)methyl)-5-benzyl-4,5-dihydroisoxazol-5-carboxamido)-3-methylbutyl)boronic acid] | > 8.00
5 | CC(C)C[C@H](NC(=O)C1(Cc2ccccc2)CC(CNC(=O)c2ccc(-c3ccccc3)cc2)=NO1)B(O)O (stereo partly drawn) [Example 94, ((1R)-1-(3-([1,1′-biphenyl]-4-carboxamidomethyl)-5-benzyl-4,5-dihydroisoxazol-5-carboxamido)-3-methylbutyl)boronic acid] | > 8.00
6 | CC(C)C[C@H](NC(=O)C1(Cc2ccccc2)CC(CNC(=O)c2cccc(-c3ccccc3)c2)=NO1)B(O)O (stereo partly drawn) [Example 95, ((1R)-1-(3-([1,1′-biphenyl]-3-carboxamidomethyl)-5-benzyl-4,5-dihydroisoxazol-5-carboxamido)-3-methylbutyl)boronic acid] | > 8.00
7 | CC(C)C[C@H](NC(=O)C1(Cc2ccccc2)CC(CNC(=O)c2cccc(-c3ccccc3)n2)=NO1)B(O)O (stereo partly drawn) [Example 96, ((1R)-1-(5-benzyl-3-((6-phenylpicolinamido)methyl)-4,5-dihydroisoxazol-5-carboxamido)-3-methylbutyl)boronic acid] | > 8.00
8 | CC(C)C[C@H](NC(=O)C1(Cc2ccccc2)CC(CNC(=O)c2ccccc2-c2ccccc2)=NO1)B(O)O (stereo partly drawn) [Example 97, ((1R)-1-(3-([1,1′-biphenyl]-2-carboxamidomethyl)-5-benzyl-4,5-dihydroisoxazol-5-carboxamido)-3-methylbutyl)boronic acid] | > 8.00
9 | CC(C)C[C@H](NC(=O)C1(Cc2ccccc2)CC(CNC(=O)c2cccc(-c3ccccn3)c2)=NO1)B(O)O (stereo partly drawn) [Example 98, ((1R)-1-(5-benzyl-3-((3-(pyridin-2-yl)benzamido)methyl)-4,5-dihydroisoxazol-5-carboxamido)-3-methylbutyl)boronic acid] | > 8.00
10 | CC(C)C[C@H](NC(=O)C1(Cc2ccccc2)CC(CN(C)C(=O)c2nccc3ccccc23)=NO1)B(O)O (stereo partly drawn) [Example 99, ((1R)-1-(5-benzyl-3-((N-methylisoquinolin-1-carboxamido)methyl)-4,5-dihydroisoxazol-5-carboxamido)-3-methylbutyl)boronic acid] | > 7.60
11 | CC(C)C[C@H](NC(=O)C1(Cc2ccc(Cl)cc2)CC(CNC(=O)c2nccc3ccccc23)=NO1)B(O)O (stereo partly drawn) [Example 101, ((1R)-1-(5-(4-chlorobenzyl)-3-((isoquinolin-1-carboxamido)methyl)-4,5-dihydroisoxazol-5-carboxamido)-3-methylbutyl)boronic acid] | > 8.00
12 | CC(C)C[C@H](NC(=O)C1(Cc2ccccc2Cl)CC(CNC(=O)c2nccc3ccccc23)=NO1)B(O)O (stereo partly drawn) [Example 102, ((1R)-1-(5-(2-chlorobenzyl)-3-((isoquinolin-1-carboxamido)methyl)-4,5-dihydroisoxazol-5-carboxamido)-3-methylbutyl)boronic acid] | > 8.00
13 | COc1ccccc1C(=O)NCC1=NOC(C(=O)N[C@@H](CC(C)C)B(O)O)C1 (stereo partly drawn) [Example 103, ((1R)-1-(3-((2-methoxybenzamido)methyl)-4,5-dihydroisoxazol-5-carboxamido)-3-methylbutyl)boronic acid] | > 7.30
14 | CC(C)C[C@H](NC(=O)C1CC([C@H](CC(C)C)NC(=O)c2ccccc2)=NO1)B(O)O (stereo partly drawn) [Example 104, ((1R)-1-(3-((S)-1-benzamido-3-methylbutyl)-4,5-dihydroisoxazol-5-carboxamido)-3-methylbutyl)boronic acid] | > 7.00
15 | CC(C)C[C@H](NC(=O)C1CC([C@H](CC(C)C)NC(=O)Cc2ccccc2)=NO1)B(O)O (stereo partly drawn) [Example 105, ((1R)-3-methyl-1-(3-((S)-3-methyl-1-(2-phenylacetamido)butyl)-4,5-dihydroisoxazol-5-carboxamido)butyl)boronic acid] | > 7.00
16 | CC(C)C[C@H](NC(=O)C1(Cc2ccccc2)CC(CNC(=O)c2cnccn2)=NO1)B(O)O (stereo partly drawn) [Example 106, ((1R)-1-(5-benzyl-3-((pyrazin-2-carboxamido)methyl)-4,5-dihydroisoxazol-5-carboxamido)-3-methylbutyl)boronic acid] | > 8.00
17 | CC(C)C[C@H](NC(=O)C1(Cc2ccccc2)CC(CNC(=O)C2CCCc3ccccc32)=NO1)B(O)O (stereo partly drawn) [Example 108, ((1R)-1-(5-benzyl-3-((1,2,3,4-tetrahydronaphthalen-1-carboxamido)methyl)-4,5-dihydroisoxazol-5-carboxamido)-3-methylbutyl)boronic acid] | > 8.00
18 | CC(C)C[C@H](NC(=O)C1(Cc2ccccc2)CC(CNC(=O)Cc2ccccc2)=NO1)B(O)O (stereo partly drawn) [Example 109, ((1R)-1-(5-benzyl-3-((2-phenylacetamido)methyl)-4,5-dihydroisoxazol-5-carboxamido)-3-methylbutyl)boronic acid] | > 8.00
19 | CC(C)C[C@H](NC(=O)C1(Cc2ccccc2)CC(CNC(=O)CCc2ccccc2)=NO1)B(O)O (stereo partly drawn) [Example 110, ((1R)-1-(5-benzyl-3-((3-phenylpropanamido)methyl)-4,5-dihydroisoxazol-5-carboxamido)-3-methylbutyl)boronic acid] | > 7.60
20 | Cc1ccc(F)cc1C(=O)NCC1=NOC(Cc2ccccc2)(C(=O)N[C@@H](CC(C)C)B(O)O)C1 (stereo partly drawn) [Example 111, ((1R)-1-(5-benzyl-3-((5-fluoro-2-methylbenzamido)methyl)-4,5-dihydroisoxazol-5-carboxamido)-3-methylbutyl)boronic acid] | > 8.00
21 | CC(C)C[C@H](NC(=O)C1(C(F)c2ccccc2)CC(CNC(=O)c2nccc3ccccc23)=NO1)B(O)O (stereo partly drawn) [Example 114, ((1R)-1-(5-(fluoro(phenyl)methyl)-3-((isoquinolin-1-carboxamido)methyl)-4,5-dihydroisoxazol-5-carboxamido)-3-methylbutyl)boronic acid] | > 8.00
22 | CC(C)C[C@H](NC(=O)C1(Cc2ccccc2)CC(CNC(=O)C2(c3ccccc3)CC2)=NO1)B(O)O (stereo partly drawn) [Example 118, ((1R)-1-(5-benzyl-3-((1-phenylcyclopropan-1-carboxamido)methyl)-4,5-dihydroisoxazol-5-carboxamido)-3-methylbutyl)boronic acid] | > 7.60
23 | Cc1nocc1C(=O)NCC1=NOC(Cc2ccccc2)(C(=O)N[C@@H](CC(C)C)B(O)O)C1 (stereo partly drawn) [Example 120, ((1R)-1-(5-benzyl-3-((3-methylisoxazol-4-carboxamido)methyl)-4,5-dihydroisoxazol-5-carboxamido)-3-methylbutyl)boronic acid] | > 8.00
24 | CC(C)C[C@H](NC(=O)C1(Cc2ccccc2)CC(CNC(=O)c2cc3ccccc3cn2)=NO1)B(O)O (stereo partly drawn) [Example 121, ((1R)-1-(5-benzyl-3-((isoquinolin-3-carboxamido)methyl)-4,5-dihydroisoxazol-5-carboxamido)-3-methylbutyl)boronic acid] | > 8.00
25 | CC(C)C[C@H](NC(=O)C1(Cc2ccccc2)CC(CNC(=O)c2cnc3ccccc3n2)=NO1)B(O)O (stereo partly drawn) [Example 122, ((1R)-1-(5-benzyl-3-((quinoxalin-2-carboxamido)methyl)-4,5-dihydroisoxazol-5-carboxamido)-3-methylbutyl)boronic acid] | > 8.00
26 | CC(C)C[C@H](NC(=O)C1(Cc2ccccc2)CC(CNC(=O)c2ccc(OC(C)C)c(C#N)c2)=NO1)B(O)O (stereo partly drawn) [Example 123, [(1R)-1-[[5-benzyl-3-[[(3-cyano-4-isopropoxy-benzoyl)amino]methyl]-4H-1,2-oxazol-5-carbonyl]amino]-3-methyl-butyl]boronic acid] | > 8.00
27 | CC(C)C[C@H](NC(=O)C1(Cn2cccn2)CC(CNC(=O)c2nccc3ccccc23)=NO1)B(O)O (stereo partly drawn) [Example 128, ((1R)-1-(5-((1H-pyrazol-1-yl)methyl)-3-((isoquinolin-1-carboxamido)methyl)-4,5-dihydroisoxazol-5-carboxamido)-3-methylbutyl)boronic acid] | > 8.00
28 | CC(C)C[C@H](NC(=O)C1(C(O)c2ccccc2)CC(CNC(=O)c2nccc3ccccc23)=NO1)B(O)O (stereo partly drawn) [Example 131, ((1R)-1-(5-(hydroxy(phenyl)methyl)-3-((isoquinolin-1-carboxamido)methyl)-4,5-dihydroisoxazol-5-carboxamido)-3-methylbutyl)boronic acid] | > 8.00
